These results are taken from patent US20260042731A1, “(2,4-DICHLOROPHENOXY)ACETIC ACID ANALOGS” (CORTEVA AGRISCIENCE LLC, priority 2022, published 2026).

What all share (test): Greenhouse post-emergence mixture trials, percent visual control
Type in all cases: in vivo

Test [1] concerns Corn (ZEAMX). To be noted: Zea mays, post-emergence, 504 h.
The test system of test [2] is Common Lambsquarters (CHEAL). The conditions noted are these: Chenopodium album, post-emergence, 504 h.
In test [3] the test system is Velvetleaf (ABUTH).
Where [4] appears, read: Abutilon theophrasti, post-emergence, 504 h, read-out: % Control.

For `O=C(O)CNCP(=O)(O)O` [Glyphosate, N-(phosphonomethyl) glycine, reference compound], the plant injury at 375 g/ha in test [1] (read-out: % Control) turned out to be 70%. Further, in test [2] (read-out: % Control), the pest or weed control at 375 g/ha was found to be 50%, the pest or weed control at 1120 g/ha amounted to 65% and the pest or weed control at 1680 g/ha was determined as 85%. In addition, in test [3] (setting [4]), the pest or weed control at 375 g/ha is 85%, the pest or weed control at 1120 g/ha was determined as 100% and the pest or weed control at 1680 g/ha stood at 100%.

For `CC(C)N(C)S(=O)(=O)NC(=O)c1cc(-n2c(=O)cc(C(F)(F)F)n(C)c2=O)c(F)cc1Cl` [Saflufenacil, reference compound], in test [1] (Trial 1 Trt 9, B2 0 g ae/ha, Saflufenacil 50 g ai or ae/ha alone, ZEAMX, 21 DAA), the plant injury at 50 g/ha was determined as 50%. Besides, the plant injury at 75 g/ha in test [1] (Trial 1 Trt 13, B2 0 g ae/ha, Saflufenacil 75 g ai or ae/ha alone, ZEAMX, 21 DAA) was 45%. The pest or weed control at 50 g/ha in test [2] (Trial 1, Trt 9, B2 0 g ae/ha, Saflufenacil 50 g ai or ae/ha alone, CHEAL, 21 DAA) is 95%; in test [3] (Abutilon theophrasti, post-emergence, 504 h, Trial 1, Trt 9, B2 0 g ae/ha, Saflufenacil 50 g ai or ae/ha alone, ABUTH, 21 DAA) it was 100%. In addition, the pest or weed control at 75 g/ha was 98% in test [2] (Trial 1, Trt 13, B2 0 g ae/ha, Saflufenacil 75 g ai or ae/ha alone, CHEAL, 21 DAA) and 100% in test [3] (Abutilon theophrasti, post-emergence, 504 h, Trial 1, Trt 13, B2 0 g ae/ha, Saflufenacil 75 g ai or ae/ha alone, ABUTH, 21 DAA). Also, in test [3] (Abutilon theophrasti, post-emergence, 504 h, Trial 1, Trt 5, B2 0 g ae/ha, Saflufenacil 25 g ai or ae/ha alone, ABUTH, 21 DAA), the pest or weed control at 25 g/ha is 100%.

For the compound `Cc1nn(-c2cc(NS(C)(=O)=O)c(Cl)cc2Cl)c(=O)n1C(F)F` [Sulfentrazone, N-[2,4-dichloro-5-[4-(difluoromethyl)-4,5-dihydro-3-methyl-5-oxo-1H-1,2,4-triazol-1-yl]phenyl]-methane-sulfonamide, reference compound], the plant injury at 420 g/ha in test [1] (Trial 1 Trt 25, B2 0 g ae/ha, Sulfentrazone 420 g ai or ae/ha alone, ZEAMX, 21 DAA) turned out to be 25%. In addition, the plant injury at 140 g/ha in test [1] (ZEAMX, 21 DAA, Sulfentrazone 140 g ai or ae/ha alone (B2 rate 0), Trial Bridge 3) turned out to be 40%. In test [1] (ZEAMX, 21 DAA, Sulfentrazone 210 g ai or ae/ha alone (B2 rate 0), Trial Bridge 3), the plant injury at 210 g/ha was 40%. For the same compound, the pest or weed control at 140 g/ha in test [2] (CHEAL, Trial Bridge 3, Sulfentrazone 140 g ai/ha alone (B2 rate 0), 21 DAA) was 99%; in test [3] (Abutilon theophrasti, post-emergence, 504 h, ABUTH, 21 DAA, Sulfentrazone 140 g ai/ha alone (compound rate 0 g ae/ha), Trial Bridge 3) it was 98%. Moreover, the pest or weed control at 210 g/ha in test [2] (CHEAL, Trial Bridge 3, Sulfentrazone 210 g ai/ha alone (B2 rate 0), 21 DAA) is 88%; in test [2] (Trial 1, Trt 21, B2 0 g ae/ha, Sulfentrazone 210 g ai or ae/ha alone, CHEAL, 21 DAA), 100%; in test [3] (Abutilon theophrasti, post-emergence, 504 h, ABUTH, 21 DAA, Sulfentrazone 210 g ai/ha alone (compound rate 0 g ae/ha), Trial Bridge 3), 100%. For the same compound, the pest or weed control at 420 g/ha in test [2] (CHEAL, Trial Bridge 3, Sulfentrazone 420 g ai/ha alone (B2 rate 0), 21 DAA) was 100%; in test [2] (Trial 1, Trt 25, B2 0 g ae/ha, Sulfentrazone 420 g ai or ae/ha alone, CHEAL, 21 DAA), 99%; in test [3] (Abutilon theophrasti, post-emergence, 504 h, Trial 1, Trt 25, B2 0 g ae/ha, Sulfentrazone 420 g ai or ae/ha alone, ABUTH, 21 DAA), 80%. Moreover, the “% Control” value in test [3] (ABUTH, 21 DAA, Sulfentrazone 210 g ai/ha alone (compound rate 0 g ae/ha), Trial Bridge 3) is given as 100%. Besides, the pest or weed control at 216 g/ha in test [3] (Abutilon theophrasti, post-emergence, 504 h, ABUTH, 21 DAA, Sulfentrazone 216 g ai/ha alone (compound rate 0 g ae/ha), Trial Bridge 3) came out at 8%.
